Laboratory results published in US20150148256A1, “BIOLUMINESCENCE IMAGING-BASED SCREENING ASSAY AND INHIBITORS OF ABCG2” (THE JOHNS HOPKINS UNIVERSITY, priority 2008, published 2015).
Structures can show the parent of a compound that is named as a salt.

Biological target: T1, ABCG2 (Homo sapiens, UniProt Q9UNQ0)
T1 sequence (Q9UNQ0 1-655): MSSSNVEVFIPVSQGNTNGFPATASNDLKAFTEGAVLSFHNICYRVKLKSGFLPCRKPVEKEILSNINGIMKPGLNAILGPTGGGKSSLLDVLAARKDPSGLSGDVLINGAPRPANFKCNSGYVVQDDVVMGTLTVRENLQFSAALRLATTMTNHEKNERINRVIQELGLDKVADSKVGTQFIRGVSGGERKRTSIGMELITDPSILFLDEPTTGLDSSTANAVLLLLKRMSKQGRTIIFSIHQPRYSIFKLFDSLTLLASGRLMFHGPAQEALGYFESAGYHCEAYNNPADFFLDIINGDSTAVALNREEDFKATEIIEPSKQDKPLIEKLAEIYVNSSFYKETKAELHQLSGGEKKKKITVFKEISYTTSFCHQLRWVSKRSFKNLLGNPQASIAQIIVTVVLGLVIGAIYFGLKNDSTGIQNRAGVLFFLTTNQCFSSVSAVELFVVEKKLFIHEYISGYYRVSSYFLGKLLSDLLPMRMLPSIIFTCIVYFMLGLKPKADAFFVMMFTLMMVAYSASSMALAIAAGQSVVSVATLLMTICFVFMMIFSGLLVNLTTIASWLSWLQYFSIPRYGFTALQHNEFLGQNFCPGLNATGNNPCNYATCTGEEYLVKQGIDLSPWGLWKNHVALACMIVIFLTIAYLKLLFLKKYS
Experiment: Bioluminescence imaging (BLI) assay in HEK293/ABCG2/fLuc cells
Conditions: not given
Protocol: HEK293/ABCG2/fLuc cells were plated into 96-well plates at a density of 4×10^4 cells/100 μL per well and were allowed to attach overnight. The following day, 10 μL of each compound or the control solvent was transferred from a compound library in a 96-well, high-throughput format into the wells using a multichannel pipette. […] Images were taken every 5 minutes for ˜1 h. Light output from each well was quantified at the 40 min time point after initiation of imaging, and the signal-to-background (S/B) ratio of the light output from each compound divided by that from the control well was calculated. This S/B ratio serves as an indicator of the potency of ABCG2 inhibition, the mechanism by which BLI signal is enhanced.
Images were taken every 5 min for ˜1 h, and light output from each well at the 40 min time point was chosen for quantification. The SB ratio of the light output from each compound divided by that from the control well was calculated. This ratio was used as an indicator of the potency of ABCG2 inhibition, the mechanism by which BLI signal is enhanced.
The BLI signal-enhancing effect of selected ABCG2 inhibitors was evaluated within the range of 0.001 μM-100 μM, with HEK293/ABCG2/fLuc cells and 50 μg/mL D-luciferin. The data obtained at 40 min after imaging commencement were chosen arbitrarily to be plotted (FIG. 3).

| Compound | Fold (BLI enhancement, S/B ratio over control) [fold] |
| --- | --- |
| Cl.Cl.OCCN1CCN(CCCN2c3ccccc3Sc3ccc(C(F)(F)F)cc32)CC1 [flufenazine hydrochloride] | 4.3 |
| FC(F)(F)c1ccc2c(c1)N(CCCN1CCN(CCCl)CC1)c1ccccc1S2 [fluphenazine N-mustard] | 3.6 |
| Cc1cc(C(C)(C)CC(C)(C)C)ccc1OCCOCC[N+](C)(C)Cc1ccccc1.[Cl-] [methylbenzethonium chloride] | 2.1 |

Same assay, conditions: Table 2; HEK293/ABCG2/fLuc cells, compound approximately 17 μM, ~50 μg/mL D-luciferin, 40 min time point

| Compound | Fold (BLI enhancement, S/B ratio over control) [fold] |
| --- | --- |
| C[C@]12CC[C@@H]3c4ccc(O)cc4CC[C@H]3[C@@H]1CC[C@@H]2OC(=O)CCC1CCCC1 [estradiol cypionate] | 3.6 |
| COc1ccc(CCN(C)CCCC(C#N)(c2cc(OC)c(OC)c(OC)c2)C(C)C)cc1OC (stereo not drawn) [gallopamil] | 2.4 |
| COc1ccc2c3c([nH]c2c1)C(C)=NCC3 [harmaline] | 8.8 |
| COc1cc(-c2oc3cc(O)cc(O)c3c(=O)c2O)ccc1O [isorhamnetin] | 7.0 |

Same assay, conditions: Table 4; approximately 17 μM, 40 min time point

| Compound | Fold (BLI enhancement), previously unknown compounds [fold] |
| --- | --- |
| COc1ccc2c3c([nH]c2c1)C(C)=NCC3 [harmaline] | 8.8 |
| COc1cc(-c2oc3cc(O)cc(O)c3c(=O)c2O)ccc1O [isorhamnetin] | 7.0 |

Same assay, conditions: human

| Compound | Fold (BLI enhancement, S/B ratio over control) [fold] | Fold (BLI enhancement), known compounds [fold] |
| --- | --- | --- |
| CC1=NCCc2c1[nH]c1cc(O)ccc21.Cl [harmalol hydrochloride] | 2.9 | – |
| COc1ccc2c(c1)[nH]c1c(C)nccc12 [harmine] | 8.9 | 8.9 |
| Cc1cc(O)c2c(=O)c3c(O)cc(O)c4c5c(O)cc(O)c6c(=O)c7c(O)cc(C)c8c1c2c(c34)c(c78)c65 [hypericin] | 3.3 | – |
| CC[C@@H](C(=O)[C@@H](C)[C@@H](O)[C@H](C)CCc1ccc(C)c(O)c1C(=O)O)[C@H]1O[C@](CC)([C@H]2CC[C@](O)(CC)[C@H](C)O2)C[C@@H]1C [lasalocid sodium] | 2.7 | – |

Same assay, conditions: human, 40 min, 17 μM

| Compound | Fold (BLI enhancement, S/B ratio over control) [fold] | fold (BLI enhancement), additional previously known ABCG2 inhibitors [fold] | Fold (BLI enhancement), previously unknown compounds [fold] | Fold (BLI enhancement), known compounds [fold] | BLI signal enhancement [fold] |
| --- | --- | --- | --- | --- | --- |
| CCC(=O)O[C@H]1CC[C@H]2[C@@H]3CCc4cc(O)ccc4[C@H]3CC[C@]12C [estradiol propionate] | 2.6 | – | – | – | – |
| C[C@]12CC[C@@H]3c4ccc(O)cc4CC[C@H]3[C@@H]1CC[C@@H]2O [estradiol] | – | 3.6 | – | – | – |
| CC(=O)Oc1ccc2c(c1)CCC1C2CC[C@]2(C)C(=O)CCC12 (stereo partly drawn) [estrone acetate] | 4.1 | – | – | – | – |
| C[C@]12CC[C@@H]3c4ccc(O)cc4CC[C@H]3[C@@H]1CCC2=O [estrone] | – | 4.1 | – | – | – |
| CCOc1ccc(Cc2nccc3cc(OCC)c(OCC)cc23)cc1OCC [ethaverine hydrochloride] | 2.6 | – | – | – | – |
| C#C[C@]1(O)CC[C@H]2[C@@H]3CCc4cc(O)ccc4[C@H]3CC[C@@]21C [ethinyl estradiol] | 2.4 | – | – | – | – |
| COc1ccc(-c2cc(=O)c3c(O)c(OC)c(OC)cc3o2)cc1O [eupatorin] | 5.6 | – | 5.6 | – | – |
| C=C1C[C@@H]2[C@H](CC[C@]3(C)C(=O)CC[C@@H]23)[C@@]2(C)C=CC(=O)C=C12 [exemestane] | 2.1 | – | – | – | – |
| CCOC(=O)C1=C(C)NC(C)=C(C(=O)OC)C1c1cccc(Cl)c1Cl (stereo not drawn) [felodipine] | 3.0 | – | – | – | – |
| CC(C)OC(=O)C(C)(C)Oc1ccc(C(=O)c2ccc(Cl)cc2)cc1 [fenofibrate] | 2.3 | – | – | – | – |
| O=c1[nH]c(=O)n([C@H]2C[C@H](O)[C@@H](CO)O2)cc1F [floxuridine] | 2.2 | – | – | – | – |
| COC(=O)Nc1nc2cc(C(=O)c3ccc(F)cc3)ccc2[nH]1 [flubendazole] | 6.3 | – | 6.3 | – | – |
| Fc1ccc(C(c2ccc(F)cc2)N2CCN(C/C=C/c3ccccc3)CC2)cc1 [flunarizine hydrochloride] | 2.9 | – | – | – | – |
| OCCN1CCN(CCCN2c3ccccc3Sc3ccc(C(F)(F)F)cc32)CC1 [fluphenazine] | 2.0 | – | – | – | – |
| CC(C)=CCC[C@]1(C)C=Cc2c(O)c3c(c(CC=C(C)C)c2O1)O[C@]12C(=C[C@@H]4C[C@H]1C(C)(C)O[C@@]2(C/C=C(/C)C(=O)O)C4=O)C3=O [gambogic acid] | 6.0 | – | 6.0 | – | – |
| COc1cc2ncnc(Nc3ccc(F)c(Cl)c3)c2cc1OCCCN1CCOCC1 [gefitinib] | 19.0 | – | – | 19.0 | – |
| O=c1c(-c2ccc(O)cc2)coc2cc(O)cc(O)c12 [genistein] | – | 1.2 | – | – | 1.2 |

| Compound | Fold (BLI enhancement, S/B ratio over control) [fold] | fold (BLI enhancement), additional previously known ABCG2 inhibitors [fold] | Fold (BLI enhancement), previously unknown compounds [fold] | Fold (BLI enhancement), known compounds [fold] | BLI signal enhancement [fold] |
| --- | --- | --- | --- | --- | --- |
| CN1C2CCCC1CC(NC(=O)c1nn(C)c3ccccc13)C2 (stereo not drawn) [granisetron hydrochloride] | 2.2 | – | – | – | – |
| CC1(C)O[C@@H]2C[C@H]3[C@@H]4CCC5=CC(=O)CC[C@]5(C)[C@@]4(F)[C@@H](O)C[C@]3(C)[C@]2(C(=O)CCl)O1 [halcinonide] | 2.2 | – | – | – | – |
| COc1ccc([C@@H]2CC(=O)c3c(O)cc(O)cc3O2)cc1O [hesperetin] | 5.0 | – | – | 5.0 | – |
| CCN(CC)CCNc1ccc(CO)c2sc3ccccc3c(=O)c12 [hycanthone] | 2.5 | – | – | – | – |
| CCc1c2c(nc3ccc(OC(=O)N4CCC(N5CCCCC5)CC4)cc13)-c1cc3c(c(=O)n1C2)COC(=O)[C@]3(O)CC [irinotecan hydrochloride] | 4.0 | – | – | – | – |
| COC(=O)[C@H]1[C@H]2C[C@H]3c4[nH]c5cc(OC)ccc5c4CCN3C[C@H]2C[C@@H](OC(=O)c2cc(OC)c(OC)c(OC)c2)[C@@H]1OC [isoreserpine] | 6.2 | – | 6.2 | – | – |
| COc1ccc(C(=O)NCc2ccc(OCCN(C)C)cc2)cc1OC [itopride hydrochloride] | 2.2 | – | – | – | – |
| O=c1c(O)c(-c2ccc(O)cc2)oc2cc(O)cc(O)c12 [kaempferol] | 4.3 | – | – | – | – |
| COc1c2occc2c(OC)c2c(=O)cc(C)oc12 [khellin] | 3.4 | – | – | – | – |
| COc1ccc(CN2CCN(C(c3ccc(F)cc3)c3ccc(F)cc3)CC2)c(OC)c1OC [lomerizine hydrochloride] | 4.0 | – | – | – | – |
| CCN(CCCCOC(=O)c1ccc(OC)c(OC)c1)C(C)Cc1ccc(OC)cc1 (stereo not drawn) [mebeverine hydrochloride] | 3.2 | – | – | – | – |
| CC(=O)[C@H]1CC[C@H]2[C@@H]3C[C@H](C)C4=CC(=O)CC[C@]4(C)[C@H]3[C@@H](O)C[C@]12C [medrysone] | 2.3 | – | – | – | – |
| CC(=O)O[C@]1(C(C)=O)CC[C@H]2[C@@H]3C=C(C)C4=CC(=O)CC[C@]4(C)[C@H]3CC[C@@]21C [megestrol acetate] | 2.1 | – | – | – | – |
| NCCS [mercaptamine hydrochloride] | 2.2 | – | – | – | – |
| COc1ccc(/C=C/C(=O)c2ccc(OC)cc2OC)cc1 [metochalcone] | 2.8 | – | – | – | – |
| CCOC(=O)Nc1ccc2c(c1)N(C(=O)CCN1CCOCC1)c1ccccc1S2 [moricizine hydrochloride] | 2.3 | – | – | – | – |
